Results as given in US9795570B2, “Modulation of macrophage phenotype by emodin” (University of South Carolina, priority 2016, dated 2017).

Columns and labels:
[1] = system: mouse peritoneal macrophages; test: Whole genome microarray, macrophages stimulated with LPS/IFNγ; type: cell-based
Protocol: (§1) Three milliliters of 4% Thioglycolate solution was injected intraperitoneally into 8-12 week old C57BL/6 mice. Three days later, macrophages were collected by lavaging the peritoneal cavity with PBS. The cells were then resuspended in DMEM containing 10% FBS. After 2 h, non-adherent cells were washed away with PBS and the macrophages were cultured overnight in serum free DMEM. The macrophages were then treated with DMEM containing IL4 (10 ng/ml, BioAbChem Inc. Ladson, S.C.) or LPS (100 ng/ml, Sigma-Aldrich) and IFNγ (20 ng/ml, BioAbChem Inc) with or without emodin. Emodin was purchased from Nanjing Langze Medicine and Technology Co. Ltd (Nanjing, China) and dissolved in DMSO at a concentration of 10 mg/ml as a stock solution.
Microarray analysis was carried out as described previously, with a few alterations. Macrophages were stimulated with IL4 for 6 h or LPS+IFNγ for 24 h with or without emodin (50 μM). Samples were prepared in biological replicates of 4. Cells were lysed with Qiazol and RNA was extracted using Qiagen's miRNeasy kit. Agilent's 2100 Bioanalyzer was used to determine the quality and quantity of the RNA. […] The RNA was amplified and labeled with Agilent's Low Input Quick Amp Labeling Kit (Agilent) according to the manufacturer's instructions. Labeled RNA was then purified using Qiagen's RNeasy Mini Kit (Qiagen, Valencia, Calif.) and dye incorporation and cRNA yield were assessed. Labeled samples were hybridized to Agilent Whole Mouse Genome Microarrays 8×60K (Agilent) using Agilent's Gene Expression Hybridization Kit (Agilent) according to the manufacturer's instructions. Microarray analysis was performed using an Agilent DNA Microarray Scanner System (Cat. # G2565CA).
For microarray analysis, data was extracted from images with Feature Extractor Software version 10.7.3.1 (Agilent); background correction using detrending algorithms was performed. Subsequently, background-corrected data was uploaded into GeneSpring GX version 11.5.1 for analysis. In this process, data was log 2 transformed, quantile normalized and baseline transformed using the median of all samples. […] Differentially expressed genes were determined by analysis of the data using the Mann-Whitney unpaired statistics. A cutoff p-value of 0.05 and a fold change cutoff value of 2.0 were used to filter the data. Pathway analysis was performed using Ingenuity Pathway Analysis software.

[2] = system: mouse peritoneal macrophages; test: qPCR of macrophage activation genes; type: cell-based
Protocol: as §1
For qPCR, macrophages were lysed with Qiazol and RNA was extracted using Zymo research Direct-zol RNA isolation kit. cDNA was then made from 1 microgram of RNA using iScript cDNA Synthesis Kit (Bio-Rad Life Science). Run conditions were 95° C. for 10 s, 58° C. for 15 s, 70° C. for 15 s. Samples were run in duplicate on a Bio-rad CFX Real Time thermocycler.

IRF4 = IRF4 protein by western blotting; type: cell-based, mouse; settings: IL4, emodin 0-50 μM, 6 h
Protocol: Following stimulation with IL4 or LPS+IFNγ with or without emodin for varying periods, macrophages were lysed with cell signaling lysis buffer (Millipore) for whole cell lysates. Cytoplasmic and nuclear extracts were prepared using the Epiquik Nuclear Extraction kit (Epigentek, Farmingdale, N.Y.). Total protein was separated on 4-20% Tris-glycine pre-cast gels (Pierce) and transferred onto Nitrocellulose membranes (Bio-Rad Life Science, Hercules, Calif.). The membranes were then probed with HRP conjugated secondary antibodies, and signals were detected using Pierce ECL Western Blotting Substrate (Pierce).

[3] = system: T cells co-cultured with TCM treated macrophages; test: Macrophage - T cell co-culture (activation and proliferation); type: cell-based, mouse
Protocol: Peritoneal macrophages were seeded into 10 cm plates and treated with EO771 conditioned medium with or without emodin for 24 h. The cells were then washed with PBS and resuspended. T cells were isolated from the spleens of C57BL/6 mice using EasySep T cell isolation kit (Stem Cell Technologies) according to the manufacturer's instructions. For the proliferation assay, T cells were labeled with CSFE and then mixed with macrophages and CD3/CD28 DYNA beads in a 1:1:1 ratio and added to 12 well plates in triplicate. For the activation assay, the T cells were collected after 24 h and stained with anti-CD3, anti-CD4, and anti-CD69 for 30 min at 4° C. The cells were then analyzed on a BD FACS flow cytometer. For the proliferation assay, T cells were collected after 72 h and stained with anti-CD3 and anti-CD4. The cells were analyzed for CSFE depletion on a Beckman Coulter FC500.

Cc1cc(O)c2c(c1)C(=O)c1cc(O)cc(O)c1C2=O [emodin]
fold reduction of LPS/IFNγ induced expression ([1]; CD86, microarray, emodin 50 μM): 7.74 fold
fold change of expression under LPS/IFNγ stimulation ([1]; CXCL2, microarray): −10.31 fold
fold change of expression under LPS/IFNγ stimulation ([1]; CXCL10, microarray): −2.01 fold
fold reduction of LPS/IFNγ induced expression ([1]; H2-Oa, microarray, emodin 50 μM): 3.85 fold
fold reduction of LPS/IFNγ induced expression ([1]; H2-Ob, microarray, emodin 50 μM): 6.42 fold
fold reduction of LPS/IFNγ induced expression ([1]; IL1β, microarray, emodin 50 μM): 13.64 fold
fold reduction of LPS/IFNγ induced expression ([1]; IL6, microarray, emodin 50 μM): 3.25 fold
genes changed by emodin in both groups ([1]; LPS/IFNγ and IL4 stimulation, microarray): 1,575 genes
genes whose expression was changed by emodin in at least one of the conditions ([1]; LPS/IFNγ or IL4 stimulation, microarray): ~6,500 genes
genes on which emodin had inverse effects under the two different stimuli ([1]; LPS/IFNγ vs IL4, microarray): 86 genes
fold reduction of LPS/IFNγ induced expression ([1]; MMP2, microarray, emodin 50 μM): 11.86 fold
fold reduction of LPS/IFNγ induced expression ([1]; MMP9, microarray, emodin 50 μM): 28.87 fold
fold increase of expression under LPS/IFNγ stimulation ([1]; Mrc1, microarray): 8.72 fold
fold change of expression under LPS/IFNγ stimulation ([1]; TNFα, microarray): −2.47 fold
fold reduction of LPS/IFNγ induced expression ([1]; TNFα, microarray, emodin 50 μM): 2.01 fold
fold increase of expression under LPS/IFNγ stimulation ([1]; YM1, microarray): 2.04 fold
LPS/IFNγ responsive genes whose induced changes were attenuated ([1]; emodin 50 μM, LPS/IFNγ 24 h): about 31%
Em + LPS vs. LPS/IFN (gene expression) ([1]; gene CCL2, microarray, LPS/IFNγ 24 h, emodin 50 μM): −12.06
Em + LPS vs. LPS/IFN (gene expression) ([1]; gene CCL5, microarray, LPS/IFNγ 24 h, emodin 50 μM): −5.41
Em + LPS vs. LPS/IFN (gene expression) ([1]; gene CD86, microarray, LPS/IFNγ 24 h, emodin 50 μM): −7.74
Em + LPS vs. LPS/IFN (gene expression) ([1]; gene CXCL2, microarray, LPS/IFNγ 24 h, emodin 50 μM): −2.47
Em + LPS vs. LPS/IFN (gene expression) ([1]; gene CXCL3, microarray, LPS/IFNγ 24 h, emodin 50 μM): −2.47
Em + LPS vs. LPS/IFN (gene expression) ([1]; gene CXCL10, microarray, LPS/IFNγ 24 h, emodin 50 μM): −10.31
Em + LPS vs. LPS/IFN (gene expression) ([1]; gene FPR2, microarray, LPS/IFNγ 24 h, emodin 50 μM): −33.81
Em + LPS vs. LPS/IFN (gene expression) ([1]; gene H2-Oa, microarray, LPS/IFNγ 24 h, emodin 50 μM): −3.85
Em + LPS vs. LPS/IFN (gene expression) ([1]; gene H2-Ob, microarray, LPS/IFNγ 24 h, emodin 50 μM): −6.42
Em + LPS vs. LPS/IFN (gene expression) ([1]; gene IFIT1, microarray, LPS/IFNγ 24 h, emodin 50 μM): −11.94
Em + LPS vs. LPS/IFN (gene expression) ([1]; gene IL1B, microarray, LPS/IFNγ 24 h, emodin 50 μM): −13.64
Em + LPS vs. LPS/IFN (gene expression) ([1]; gene IL1RL1, microarray, LPS/IFNγ 24 h, emodin 50 μM): −10.78
Em + LPS vs. LPS/IFN (gene expression) ([1]; gene IL6, microarray, LPS/IFNγ 24 h, emodin 50 μM): −3.25
Em + LPS vs. LPS/IFN (gene expression) ([1]; gene IL12A, microarray, LPS/IFNγ 24 h, emodin 50 μM): −4.93
Em + LPS vs. LPS/IFN (gene expression) ([1]; gene IL12B, microarray, LPS/IFNγ 24 h, emodin 50 μM): 2.47
Em + LPS vs. LPS/IFN (gene expression) ([1]; gene IRF5, microarray, LPS/IFNγ 24 h, emodin 50 μM): −2.11
Em + LPS vs. LPS/IFN (gene expression) ([1]; gene IRF7, microarray, LPS/IFNγ 24 h, emodin 50 μM): −4.20
Em + LPS vs. LPS/IFN (gene expression) ([1]; gene MMP2, microarray, LPS/IFNγ 24 h, emodin 50 μM): −11.86
Em + LPS vs. LPS/IFN (gene expression) ([1]; gene MMP9, microarray, LPS/IFNγ 24 h, emodin 50 μM): −28.87
Em + LPS vs. LPS/IFN (gene expression) ([1]; gene MYH3, microarray, LPS/IFNγ 24 h, emodin 50 μM): −7.76
Em + LPS vs. LPS/IFN (gene expression) ([1]; gene Mrc1, microarray, LPS/IFNγ 24 h, emodin 50 μM): 8.72
Em + LPS vs. LPS/IFN (gene expression) ([1]; gene NOS2, microarray, LPS/IFNγ 24 h, emodin 50 μM): −3.77
Em + LPS vs. LPS/IFN (gene expression) ([1]; gene PTGS2, microarray, LPS/IFNγ 24 h, emodin 50 μM): −3.99
Em + LPS vs. LPS/IFN (gene expression) ([1]; gene RASGRP1, microarray, LPS/IFNγ 24 h, emodin 50 μM): −8.52
Em + LPS vs. LPS/IFN (gene expression) ([1]; gene SELL, microarray, LPS/IFNγ 24 h, emodin 50 μM): −10.45
Em + LPS vs. LPS/IFN (gene expression) ([1]; gene SOCS1, microarray, LPS/IFNγ 24 h, emodin 50 μM): −5.34
Em + LPS vs. LPS/IFN (gene expression) ([1]; gene TLR4, microarray, LPS/IFNγ 24 h, emodin 50 μM): −4.71
Em + LPS vs. LPS/IFN (gene expression) ([1]; gene TNF, microarray, LPS/IFNγ 24 h, emodin 50 μM): −2.01
expression of polarization markers iNOS, Arg1 and YM1 in naïve macrophages ([2]; emodin 25 or 50 μM, 24 h): no effects
expression of M1 genes TNFα, CXCL2 and CXCL10, and M2 gene Mrc1 ([2]; qPCR, LPS/IFNγ vs IL4 settings): inversely regulated
expression of M2 genes Arg1 and Chi3I3 ([2]; qPCR, under IL4 stimulation): inhibited
expression of receptors TLR4 and CSFr1 ([2]; qPCR, under LPS/IFNγ or IL4 stimulation, respectively): inhibited the expression
expression of IL1β, iNOS, IL6, MMP2 and 9 ([2]; qPCR, under LPS/IFNγ stimulation): inhibited the expression
expression of IRF5, SOCS1 and CCL2 ([2]; qPCR, under both IL4 and LPS stimulation): inhibited the expression
IRF4 protein production (IRF4): dose dependently inhibited
T cell proliferation (CSFE depletion) ([3]; TCM and emodin co-treated macrophages, 72 h): restored T cell proliferation
suppression of T cell activation (CD69 on CD4 T cells) by TCM treated macrophages ([3]; macrophages pre-treated with emodin along with TCM 24 h, co-culture 24 h): completely blocked the suppression
